We go through twelve molecules from US12286423B2, “Antiviral 1,3-di-oxo-indene compounds” (Novartis AG, priority 2020, dated 2025).

The conditions of data set [1]: cited from earlier work; for metabolization and excretion / bioavailability: in vivo.
The next data set relates to HRV B14. The data set is described as follows: HRV B14 CPE inhibition assay. In kind it is cell-based. Particulars: Human rhinovirus sp.; HRV B14, cytopathic effect inhibition. As to the method:
(§1) Bioactivity of the Compounds of the Invention was Determined Using the Following Methods. Determination of Drug Efficacy Against Picornaviruses Using Cytopathic Effect (CPE) Inhibition Assay
(§2) In the assay, HeLa (human cervical cancer cells), MRC-5 (human fetal lung fibroblast cells), and RD cells (derived from human rhabdomyosarcoma) were employed. For comparison, ribavirin (Riv), Pleconaril (pleco), and […] (BTA) were used as controls. Reagents were dissolved at a concentration of 10-40 mg/ml in 100% dimethyl sulfoxide (DMSO). Water-soluble reagents were dissolved in PBS (−) solution and stored at −20° C. On the day of the experiment, they were used in 3 fold to 5 fold concentrations in such a manner that the concentration of dimethyl sulfoxide in each well was between 0.5% and 1%.
(§3) Pharmaceutical efficacy was determined using a virus-induced cytopathic effect (CPE) inhibition assay. In this regard, after cells suitable for viruses were grown in 96-well plates, dilutions of viruses in DME supplemented with 2% FBS (DME/2% FBS) or MEM supplemented with 2% FBS (MEM/2% FBS) were inoculated in an amount of […] with a concentration corresponding to 100 CCID50 (50% cell culture infective dose) into each well of the plates, and incubated for 30 min-1 hr at 33° C. or 37° C. to allow the viruses to adsorb onto the cells. The culture medium was removed before aliquots of drug dilutions with various concentrations were added in an amount of 100 μl to each well. While HRV (human rhinovirus) was grown at 33° C., the other viruses were incubated in a 37° C. CO2 incubator for 2-3 days. Alternatively, the cells were cultured for 2-3 days without removal of the medium after they were added with 50 μl of each drug dilution having a 2-fold higher concentration and then with 50 μl of the virus dilution. Viruses were incubated in host HeLa cells at 37° C. for 2-3 days in DME/2% or MEM/2% FBS.
(§4) For HeLa cells, the drugs were measured for EC50 (50% maximal effective concentration), which is the concentration of a drug inducing a response halfway between the baseline and maximum, using an MTT assay. With regard to RD and MRC-5 cells, CPE was determined using FDA (Fluorescein diacetate) or MTT. In order to determine the effect of drug toxicity on efficacy results, at the time of inoculation with the virus, mock-infection was also included. A virus-free medium was added to a cell culture, which was then subjected to the same treatment as the mock-infected cells inoculated with the virus. That is, the medium was removed after one hour of incubation, and dilutions of drugs in the medium were added once more. Following incubation for 2-3 days, the cells were observed under a microscope and the drugs were determined for CC50 (50% cytotoxic concentration) at which 50% of the cells were killed, using an MTT assay in which counts of viable cells in mock-infected wells containing drugs were compared to those of viable cells in control wells containing no drugs. In an FDA hydrolysis assay, FDA was added to each well after removal of the medium, and incubated for 20-30 min before fluorescence intensity was measured using a spectrofluorometer to determine CPE in the same manner as in MTT.
(§5) In addition, antiviral effects can be calculated using Mathematical Formula 2 below: Antiviral Effect=[A(Drug/Virus)−A(Virus Control)/A(Cell control)−A(Virus Control)]
(§6) If the survival rate is 100%, its antiviral effect is 100% whereas if the survival rate is 0%, its antiviral effect is none. […]
(§7) Specifically, cells grown to confluence in 96-well plates were infected with 100 50% cell culture infected doses (CCID50) of virus. After an adsorption period of 2 hrs at 37° C., the virus was removed and serial dilutions of the compounds were added. […] After removal of the medium, 90 μl of a culture medium and 10 μl of MTS-phenazine methosulfate (Promega, Leiden, The Netherlands) were added to each well. […]

Another data set deals with C15_C3 REPLICON
The data set is described as follows: C15_C3 replicon assay. The format is cell-based. Background: A replicon is a self-replicating genome or part of one, used to study replication in cells.

The subject of a further data set is HRV A1B. Description: HRV A1B CPE inhibition assay. Particulars: Human rhinovirus sp., cytopathic effect inhibition, read-out: HRV A1B_CPE (EC50 μM). In kind it is cell-based. The protocol:
as §1, §2, §3, §4, §5, §6, §7
Background: Protection from cytopathic effect is a common read-out in antiviral testing.

Another data set concerns HRV A29. Description: HRV A29 CPE inhibition assay. In kind it is cell-based. Particulars: Human rhinovirus sp.; HRV A29, cytopathic effect inhibition. As to the method:
as §1, §2, §3, §4, §5, §6, §7

The subject of another data set is HRV A16. The data set is described as follows: HRV A16 CPE inhibition assay. The format is cell-based. Particulars: Human rhinovirus sp.; HRV A16, cytopathic effect inhibition. The protocol:
as §1, §2, §3, §4, §5, §6, §7

The nature of data set [2]: Cytotoxicity (CC50) in mock-infected cells, MTT assay. In kind it is cell-based. Particulars: human, HeLa cells (mock-infected), 50% cytotoxic concentration, read-out: CYTOTOX (CC50 μM). The protocol:
as §4
That is, the survival rate (% survival) of mock-infected cells for cytotoxicity measurement was calculated using the Mathematical Formula 1 below: Cell Drug=Survival by [A(Drug)−A(Background solution)/A(Cell control)−A(Background×100% Solution)]
While 100% cell survival means no cytotoxicity of the drug, the highest cytotoxicity is reflected by 0% cell survival. The 50% cytotoxic concentration was defined as the concentration required to reduce the cell number by 50%. This concentration of the drug is represented as CC50. Higher values mean lower cytotoxicity. […]
In Mathematical Formulae 3 and 4 above, • OD (CC) represents the OD of the background cell culture that is neither induced by a virus nor treated by chemical, • OD (VC) represents the OD of the control cell culture that is induced by a virus but not treated by chemical, • OD (Virus+Compound) represents the OD of the cell culture infected by a virus that has been treated with a concentrated compound, • OD (Compound) represents the OD of the cell culture that has been treated with a concentrated compound only, and • OD (Blank) represents the OD of the well to which only the cell culture has been added.
The effective concentration (EC50) represents the concentration of a drug at which 50% of cells are allowed to survive by CPE of an induced virus, and the cytotoxicity concentration (CC50) represents the concentration of a drug at which a compound has killed 50% of cells, and they were calculated by the logarithmic interpolation.
For orientation: Tetrazolium assays rely on reduction of a dye to a coloured formazan, in cell work by metabolically active cells.

For data set [3] the following is noted: in vivo; cited from earlier work.
In data set [4] the test system is 48 rhinovirus types and coxsackievirus A21, B3, enterovirus 70 and echovirus 11. Particulars: cited from earlier work.
For data set [5] the following is noted: cited from earlier work.
Data set [6] relates to rhinoviruses and enteroviruses. Particulars: cited from earlier work.
For data set [7] the following is noted: cited from earlier work. The source holds these as a separate data set.

On to `Cc1cc(CCCOc2c(C)cc(-c3noc(C(F)(F)F)n3)cc2C)on1` [Pleconaril], for which the oral bioavailability entry in data set [1] (oral) is reported as “very good oral bioavailability”.

For `C[C@@H](c1ccc2c(c1)O[C@]1(O)c3cccc(N)c3C(=O)[C@]21NC(=O)CN1CCC1)C1CC1` [Example 17, N-((4bR,9bR)-1-amino-7-((R)-1-cyclopropylethyl)-4b-hydroxy-10-oxo-4b,10-dihydro-9bH-indeno[1,2-b]benzofuran-9b-yl)-2-(azetidin-1-yl)acetamide], the concentration giving a half-maximal response (EC50) was determined as 0.016 µM in the data set with HRV B14; 1.36 µM with C15_C3 REPLICON; 0.016 µM with HRV A1B; 0.018 µM in the data set on HRV A29; 0.07 µM with HRV A16. Also, the half-maximal cytotoxic concentration (CC50) in data set [2] came to 24.5 µM.

For `Cc1cc(CCCCCOc2c(Cl)cc(C3=NCCO3)cc2Cl)on1` [WIN 54954], the metabolization and excretion result in [1] is “rapid metabolization and excretion”. In data set [3], the side effects entry is recorded as “skin rash”.

Turning to `Cc1c(S(C)(=O)=O)c[nH]c1C(=O)NC12C(=O)c3c(N)cccc3C1(O)Oc1cc([C@H]3C[C@H]3C)ccc12` (stereo partly drawn) [Example 27, N-(1-amino-4b-hydroxy-7-((1S,2R)-2-methylcyclopropyl)-10-oxo-4b,10-dihydro-9bH-indeno[1,2-b]benzofuran-9b-yl)-3-methyl-4-(methylsulfonyl)-1H-pyrrole-2-carboxamide], the concentration for a half-maximal effect (EC50) with HRV B14 turned out to be 0.016 µM; in the data set with C15_C3 REPLICON, 0.705 µM; in the data set with HRV A1B, 0.02 µM; in the data set on HRV A29 it was 0.079 µM; in the data set on HRV A16 it was 0.084 µM. Besides, the CC50 in data set [2] was determined as 40.4 µM.

In the case of `C[C@H](c1ccc2c(c1)O[C@]1(O)c3cccc(N)c3C(=O)[C@]21NC(=O)CN1CCC1)C1CC1` [Example 5, N-((4bR,9bR)-1-amino-7-((S)-1-cyclopropylethyl)-4b-hydroxy-10-oxo-4b,10-dihydro-9bH-indeno[1,2-b]benzofuran-9b-yl)-2-(azetidin-1-yl)acetamide], the EC50 with HRV B14 turned out to be 0.016 µM; with C15_C3 REPLICON, 1.35 µM; in the data set on HRV A1B it was 0.036 µM; in the data set with HRV A29 it was 0.039 µM; with HRV A16, 0.072 µM. Moreover, the CC50 in data set [2] stood at 19.2 µM.

In the case of `CCOC(=O)/C=C/[C@H](C[C@@H]1CCNC1=O)NC(=O)[C@@H](CC(=O)[C@@H](NC(=O)c1cc(C)on1)C(C)C)Cc1ccc(F)cc1` [AG 7088], the “concentration range of effect in the cell culture” value in data set [4] was “nanomolar concentration range”.

For `CCC(=O)C(CCCCCCOc1ccc(OC)cc1Cl)C(=O)CC` [Arildone], the solubility result in data set [5] is on record as “poor solubility”. Further, the bioavailability entry in data set [1] is given as “low bioavailability”. The “antiviral effects in the cell culture” value in data set [6] is “very good antiviral effects”.

On to `Cc1cc(S(C)(=O)=O)[nH]c1C(=O)NC12C(=O)c3c(N)cccc3C1(O)Oc1cc([C@@H]3C[C@@H]3C)ccc12` (stereo partly drawn) [Example 26, N-(1-amino-4b-hydroxy-7-((1R,2S)-2-methylcyclopropyl)-10-oxo-4b,10-dihydro-9bH-indeno[1,2-b]benzofuran-9b-yl)-3-methyl-5-(methylsulfonyl)-1H-pyrrole-2-carboxamide], for which the EC50 is 0.016 µM with HRV B14; 8.37 µM with C15_C3 REPLICON; 0.17 µM in the data set on HRV A1B; 0.274 µM in the data set with HRV A29; 0.093 µM in the data set on HRV A16. Besides, the CC50 in data set [2] amounted to 37.1 µM.

With `Cc1cc(CCCCCCCOc2ccc(C3=NCCO3)cc2)on1` [disoxaril], in [1], the bioavailability entry is “low bioavailability”; the metabolization and excretion result is “rapid metabolization and excretion”. Moreover, in data set [6], the “antiviral effects in the cell culture” value is “very good antiviral effects”.

As for `CC(C)S(=O)(=O)n1c(N)nc2ccc(/C(=N/O)c3ccccc3)cc21` [Enviroxime], in [7], the “pharmacokinetics in clinical studies” value is listed as “bad pharmacokinetics” and the “therapeutic effects in clinical studies” value is “insignificant or few therapeutic effects”.

Take `CCOC(=O)c1ccc(OCCC2CCN(c3ccc(C)nn3)CC2)cc1` [pirodavir]: in [6], the “antiviral effects in the cell culture” value is “very good antiviral effects”.

`Cc1cc(S(=O)(=O)N2CCN(C)CC2)[nH]c1C(=O)N[C@]12C(=O)c3c(N)cccc3[C@@]1(O)Oc1cc([C@H]3C[C@@H]3C)ccc12` [Example 14, N-((4bR,9bR)-1-amino-4b-hydroxy-7-((1S,2S)-2-methylcyclopropyl)-10-oxo-4b,10-dihydro-9bH-indeno[1,2-b]benzofuran-9b-yl)-3-methyl-5-((4-methylpiperazin-1-yl)sulfonyl)-1H-pyrrole-2-carboxamide]: the EC50 came to 0.016 µM in the data set on HRV B14; 0.516 µM with C15_C3 REPLICON; 0.016 µM in the data set on HRV A1B; 0.03 µM in the data set on HRV A29; 0.023 µM in the data set on HRV A16. In [2], the cytotoxic concentration (CC50) came out at 21.9 µM.

What is called EC50 is the concentration needed to bring the measured effect to its halfway point. What is called CC50 is the concentration that lowers cell viability or growth by half.
